Data reported in PubChem BioAssay (NCI).
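1) Cells in 96-well plates. 2) Compound, 48 h, 5 concentrations. 3) Linear interpolation between surrounding doses. 4) Unreached endpoint = highest concentration. Definition used: TGI = concentration required for complete inhibition of growth.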

Assays:
Experiment in all cases: inhibition of tumour cell growth, NCI panel, 48 h
HS 578T breast = system: HS 578T breast
OVCAR-5 ovarian = system: OVCAR-5 ovarian
EKVX NSCLC = system: EKVX NSCLC
SK-MEL-2 melanoma = system: SK-MEL-2 melanoma
UACC-257 melanoma = system: UACC-257 melanoma
COLO 205 colon = system: COLO 205 colon
HCC-2998 colon = system: HCC-2998 colon
MDA-N = system: MDA-N
A549 NSCLC = system: A549 NSCLC
KM20L2 colon = system: KM20L2 colon
SR leukemia = system: SR leukemia
KM12 colon = system: KM12 colon
MDA-MB-231 breast = system: MDA-MB-231 breast
NCI-H226 lung = system: NCI-H226 lung
SF-295 CNS = system: SF-295 CNS
NCI-H23 lung = system: NCI-H23 lung
NCI-H460 lung = system: NCI-H460 lung
SK-OV-3 ovarian = system: SK-OV-3 ovarian
K-562 leukemia = system: K-562 leukemia
SF-268 CNS = system: SF-268 CNS
SW-620 colon = system: SW-620 colon
MOLT-4 leukemia = system: MOLT-4 leukemia
ACHN renal = system: ACHN renal
MDA-MB-435 = system: MDA-MB-435
MALME-3M melanoma = system: MALME-3M melanoma
LXFL 529 NSCLC = system: LXFL 529 NSCLC
NCI-H522 lung = system: NCI-H522 lung
MCF7 breast = system: MCF7 breast
M19-MEL melanoma = system: M19-MEL melanoma
SK-MEL-5 melanoma = system: SK-MEL-5 melanoma
SNB-75 CNS = system: SNB-75 CNS
U251 CNS = system: U251 CNS
HOP-18 NSCLC = system: HOP-18 NSCLC
SNB-19 CNS = system: SNB-19 CNS
RPMI-8226 leukemia = system: RPMI-8226 leukemia
HL-60(TB) leukemia = system: HL-60(TB) leukemia
NCI/ADR-RES ovarian = system: NCI/ADR-RES ovarian
DLD-1 colon = system: DLD-1 colon
SK-MEL-28 melanoma = system: SK-MEL-28 melanoma
LOX IMVI melanoma = system: LOX IMVI melanoma
IGROV1 ovarian = system: IGROV1 ovarian
CAKI-1 renal = system: CAKI-1 renal
DMS 114 small cell lung = system: DMS 114 small cell lung
OVCAR-4 ovarian = system: OVCAR-4 ovarian
786-0 renal = system: 786-0 renal
SF-539 CNS = system: SF-539 CNS
SN12C renal = system: SN12C renal
RXF 393 renal = system: RXF 393 renal
CCRF-CEM leukemia = system: CCRF-CEM leukemia
OVCAR-8 ovarian = system: OVCAR-8 ovarian
HOP-62 NSCLC = system: HOP-62 NSCLC
M14 melanoma = system: M14 melanoma
HCT-15 colon = system: HCT-15 colon
HT29 colon = system: HT29 colon
SNB-78 CNS = system: SNB-78 CNS
TK-10 renal = system: TK-10 renal
XF 498 CNS = system: XF 498 CNS
HCT-116 colon = system: HCT-116 colon
DMS 273 small cell lung = system: DMS 273 small cell lung
UACC-62 melanoma = system: UACC-62 melanoma
PC-3 prostate = system: PC-3 prostate
DU-145 prostate = system: DU-145 prostate
HOP-92 NSCLC = system: HOP-92 NSCLC
A498 renal = system: A498 renal
OVCAR-3 ovarian = system: OVCAR-3 ovarian
UO-31 renal = system: UO-31 renal

O=C1C(Nc2ccc(S(=O)(=O)Nc3cnc4ccccc4n3)cc2)=CC(=Nc2ccc(S(=O)(=O)Nc3cnc4ccccc4n3)cc2)c2ccccc21
TGI (HS 578T breast): > 100 µM
TGI (OVCAR-5 ovarian): 30.8 µM
TGI (EKVX NSCLC): 36.1 µM
TGI (SK-MEL-2 melanoma): 36.3 µM
TGI (UACC-257 melanoma): > 65.2 µM
TGI (COLO 205 colon): 33.1 µM
TGI (HCC-2998 colon): 31.3 µM
TGI (MDA-N): 34.8 µM
TGI (A549 NSCLC): 38 µM
TGI (KM20L2 colon): 32 µM
TGI (SR leukemia): > 73.9 µM
TGI (KM12 colon): 31 µM
TGI (MDA-MB-231 breast): 70.2 µM
TGI (NCI-H226 lung): 43.7 µM
TGI (SF-295 CNS): 30.3 µM
TGI (NCI-H23 lung): 36.1 µM
TGI (NCI-H460 lung): 31.7 µM
TGI (SK-OV-3 ovarian): 31 µM
TGI (K-562 leukemia): > 74.9 µM
TGI (SF-268 CNS): 38.2 µM
TGI (SW-620 colon): 32.1 µM
TGI (MOLT-4 leukemia): 71.2 µM
TGI (ACHN renal): > 54.9 µM
TGI (MDA-MB-435): 34 µM
TGI (MALME-3M melanoma): 33.8 µM
TGI (LXFL 529 NSCLC): 29.5 µM
TGI (NCI-H522 lung): 30.5 µM
TGI (MCF7 breast): 42.4 µM
TGI (M19-MEL melanoma): 30.8 µM
TGI (SK-MEL-5 melanoma): 31.5 µM
TGI (SNB-75 CNS): 28.5 µM
TGI (U251 CNS): 34 µM
TGI (HOP-18 NSCLC): 26.9 µM
TGI (SNB-19 CNS): 29 µM
TGI (RPMI-8226 leukemia): > 77.8 µM
TGI (HL-60(TB) leukemia): 54.7 µM
TGI (NCI/ADR-RES ovarian): > 100 µM
TGI (DLD-1 colon): 31.8 µM
TGI (SK-MEL-28 melanoma): 33 µM
TGI (LOX IMVI melanoma): 30.7 µM
TGI (IGROV1 ovarian): 37.4 µM
TGI (CAKI-1 renal): 31.2 µM
TGI (DMS 114 small cell lung): 38 µM
TGI (OVCAR-4 ovarian): 47.2 µM
TGI (786-0 renal): 31.6 µM
TGI (SF-539 CNS): 35.7 µM
TGI (SN12C renal): 30.6 µM
TGI (RXF 393 renal): 32.3 µM
TGI (CCRF-CEM leukemia): 57 µM
TGI (OVCAR-8 ovarian): 39.5 µM
TGI (HOP-62 NSCLC): 34.8 µM
TGI (M14 melanoma): 33.7 µM
TGI (HCT-15 colon): 33 µM
TGI (HT29 colon): 36.3 µM
TGI (SNB-78 CNS): 47.3 µM
TGI (TK-10 renal): > 54.7 µM
TGI (XF 498 CNS): 59.2 µM
TGI (HCT-116 colon): 32.9 µM
TGI (DMS 273 small cell lung): 24.4 µM
TGI (UACC-62 melanoma): 33.6 µM
TGI (PC-3 prostate): 52.9 µM
TGI (DU-145 prostate): 30.7 µM
TGI (HOP-92 NSCLC): 28.7 µM
TGI (A498 renal): 30.3 µM
TGI (OVCAR-3 ovarian): 47.6 µM
TGI (UO-31 renal): 30.4 µM

Nc1ccc2ncc(NCc3ccc(F)cc3)nc2c1
TGI (OVCAR-5 ovarian): > 100 µM
TGI (EKVX NSCLC): > 100 µM
TGI (SK-MEL-2 melanoma): > 100 µM
TGI (UACC-257 melanoma): > 100 µM
TGI (COLO 205 colon): > 100 µM
TGI (HCC-2998 colon): > 100 µM
TGI (A549 NSCLC): > 100 µM
TGI (KM20L2 colon): > 100 µM
TGI (SR leukemia): > 100 µM
TGI (KM12 colon): > 100 µM
TGI (NCI-H226 lung): > 100 µM
TGI (SF-295 CNS): > 100 µM
TGI (NCI-H23 lung): > 100 µM
TGI (NCI-H460 lung): > 100 µM
TGI (SK-OV-3 ovarian): > 100 µM
TGI (K-562 leukemia): > 100 µM
TGI (SF-268 CNS): > 100 µM
TGI (SW-620 colon): > 100 µM
TGI (MOLT-4 leukemia): > 100 µM
TGI (ACHN renal): > 100 µM
TGI (MALME-3M melanoma): > 100 µM
TGI (LXFL 529 NSCLC): > 100 µM
TGI (NCI-H522 lung): > 100 µM
TGI (M19-MEL melanoma): > 100 µM
TGI (SK-MEL-5 melanoma): > 100 µM
TGI (SNB-75 CNS): > 100 µM
TGI (U251 CNS): > 100 µM
TGI (HOP-18 NSCLC): > 100 µM
TGI (SNB-19 CNS): > 100 µM
TGI (RPMI-8226 leukemia): > 100 µM
TGI (HL-60(TB) leukemia): > 100 µM
TGI (DLD-1 colon): > 100 µM
TGI (SK-MEL-28 melanoma): > 100 µM
TGI (LOX IMVI melanoma): > 100 µM
TGI (CAKI-1 renal): > 100 µM
TGI (DMS 114 small cell lung): > 100 µM
TGI (OVCAR-4 ovarian): > 100 µM
TGI (786-0 renal): > 100 µM
TGI (SF-539 CNS): > 100 µM
TGI (SN12C renal): > 100 µM
TGI (RXF 393 renal): > 100 µM
TGI (CCRF-CEM leukemia): > 100 µM
TGI (OVCAR-8 ovarian): > 100 µM
TGI (HOP-62 NSCLC): > 100 µM
TGI (M14 melanoma): > 100 µM
TGI (HCT-15 colon): > 100 µM
TGI (HT29 colon): > 100 µM
TGI (SNB-78 CNS): > 100 µM
TGI (TK-10 renal): > 100 µM
TGI (XF 498 CNS): 86.1 µM
TGI (HCT-116 colon): > 100 µM
TGI (DMS 273 small cell lung): > 100 µM
TGI (UACC-62 melanoma): > 100 µM
TGI (HOP-92 NSCLC): > 100 µM
TGI (OVCAR-3 ovarian): > 100 µM
TGI (UO-31 renal): > 100 µM
